Where a chain is given by its changes, count along the chain named. “Also recorded” adds a separate entry of the source.
Experiments:
[1] = molecular target: T1, wild type α1b-adrenoceptor-G11α fusion protein (Mesocricetus auratus, UniProt P18841); test: [35S]GTPγS binding, membranes of HEK293 cells; type: biochemical; settings: 10 μM phenylephrine (FIG. 4A)
T1 construct: the full length c-myc-tagged α1b-adrenoceptor-G11α fusion protein; expressed in transfected cells; host or cells: HEK293 (membranes)
T1 sequence (P18841 1-515): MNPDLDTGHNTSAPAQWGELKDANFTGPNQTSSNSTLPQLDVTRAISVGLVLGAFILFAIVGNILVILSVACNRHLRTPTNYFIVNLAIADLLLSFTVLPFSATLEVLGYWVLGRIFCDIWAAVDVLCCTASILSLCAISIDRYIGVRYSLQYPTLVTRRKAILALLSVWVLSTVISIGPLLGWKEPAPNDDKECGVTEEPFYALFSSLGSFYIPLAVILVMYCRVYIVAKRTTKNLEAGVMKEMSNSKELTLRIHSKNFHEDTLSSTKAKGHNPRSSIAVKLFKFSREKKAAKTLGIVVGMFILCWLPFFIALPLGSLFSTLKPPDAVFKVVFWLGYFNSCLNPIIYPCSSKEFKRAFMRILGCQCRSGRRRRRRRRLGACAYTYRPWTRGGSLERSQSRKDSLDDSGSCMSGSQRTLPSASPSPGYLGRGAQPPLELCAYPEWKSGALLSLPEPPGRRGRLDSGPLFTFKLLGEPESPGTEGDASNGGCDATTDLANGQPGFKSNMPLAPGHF
Protocol: (§3) [^35S]GTPγS binding experiments were initiated by the addition of membranes containing defined amounts of the fusion constructs (see Results for details) to an assay buffer (20 mM HEPES (pH 7.4), 3 mM MgCl2, 100 mM NaCl, 1 μM guanosine 5′-diphosphate, 0.2 mM ascorbic acid, 50 nCi [^35S]GTPγS) containing the indicated concentrations of receptor ligands. Non-specific binding was determined in the same conditions but in the presence of 100 μM GTPγS. Reactions were incubated for 15 min at 30° C. and were terminated by the addition of 0.5 ml of ice cold buffer, containing 20 mM HEPES (pH 7.4), 3 mM MgCl2 and 100 mM NaCl. The samples were centrifuged at 16,000 g for 15 min at 4° C., and the resulting pellets were resuspended in solubilization buffer (100 mM Tris, 200 mM NaCl, 1 mM EDTA, 1.25% Nonidet P-40) plus 0.2% sodium dodecylsulfate. Samples were precleared with Pansorbin (Calbiochem), followed by immunoprecipitation with CQ antiserum (Mitchell et al., 1993).

[2] = molecular target: T2, α1b-adrenoceptor-Gly208AlaG11α fusion protein (UniProt P18841+P21278, G208A); test: [35S]GTPγS binding, membranes of HEK293 cells; type: biochemical; settings: 10 μM phenylephrine (FIG. 4A(2))
T2 construct: the full length c-myc-tagged α1b-adrenoceptor-G11α fusion protein; expressed in transfected cells; host or cells: HEK293 (membranes)
Protocol: as §3

[3] = molecular target: T3, Leu151Aspα1b-adrenoceptor-G11α fusion protein (Mesocricetus auratus, UniProt P18841, L151D); test: [35S]GTPγS binding, membranes of HEK293 cells; type: biochemical; settings: 10 μM phenylephrine (FIG. 4A(3))
T3 construct: the full length c-myc-tagged α1b-adrenoceptor-G11α fusion protein; expressed in transfected cells; host or cells: HEK293 (membranes)
T3 sequence (P18841 1-515 L151D): T1 sequence (P18841 1-515) with L151D
Protocol: as §3

[4] = molecular target: T4, co-expressed α1b-adrenoceptor-Gly208AlaG11α + Leu151Aspα1b-adrenoceptor-G11α (Mesocricetus auratus, UniProt P18841, L151D); test: [35S]GTPγS binding, membranes of HEK293 cells; type: biochemical; settings: two non-functional mutants co-expressed, 10 μM phenylephrine (FIG. 4A(4))
T4 construct: the full length c-myc-tagged α1b-adrenoceptor-G11α fusion protein; expressed in transfected cells; host or cells: HEK293 (membranes)
T4 sequence (P21278 whole entry G208A partner, one chain of several, the tested form may be a part): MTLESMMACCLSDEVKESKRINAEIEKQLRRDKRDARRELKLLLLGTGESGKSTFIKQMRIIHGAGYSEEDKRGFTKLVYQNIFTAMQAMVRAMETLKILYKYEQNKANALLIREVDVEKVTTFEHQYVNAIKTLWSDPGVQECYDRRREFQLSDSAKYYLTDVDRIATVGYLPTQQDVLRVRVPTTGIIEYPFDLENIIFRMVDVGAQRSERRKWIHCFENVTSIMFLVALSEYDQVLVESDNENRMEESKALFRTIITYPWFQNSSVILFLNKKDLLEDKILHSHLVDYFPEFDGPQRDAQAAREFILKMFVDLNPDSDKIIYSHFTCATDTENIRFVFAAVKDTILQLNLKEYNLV
T4 sequence (P18841 whole entry L151D, one chain of several, the tested form may be a part): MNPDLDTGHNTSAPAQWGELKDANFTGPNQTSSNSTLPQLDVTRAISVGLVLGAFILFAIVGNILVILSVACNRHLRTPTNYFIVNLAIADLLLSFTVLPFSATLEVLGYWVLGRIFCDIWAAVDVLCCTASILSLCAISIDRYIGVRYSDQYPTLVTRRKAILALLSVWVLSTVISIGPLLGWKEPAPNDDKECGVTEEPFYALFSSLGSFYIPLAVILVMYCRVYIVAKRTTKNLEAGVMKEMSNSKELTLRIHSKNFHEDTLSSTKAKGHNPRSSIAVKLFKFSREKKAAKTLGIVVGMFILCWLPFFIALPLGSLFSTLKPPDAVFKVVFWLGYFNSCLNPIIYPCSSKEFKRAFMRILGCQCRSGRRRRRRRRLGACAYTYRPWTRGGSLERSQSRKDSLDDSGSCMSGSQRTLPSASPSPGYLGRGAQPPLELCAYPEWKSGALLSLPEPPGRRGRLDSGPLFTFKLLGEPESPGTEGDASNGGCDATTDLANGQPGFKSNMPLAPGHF
T4 sequence (P21278 whole entry partner, one chain of several, the tested form may be a part): as the sequence (P21278 whole entry G208A partner, one chain of several, the tested form may be a part) above, with A208G counted along it
Protocol: as §3

[5] = system: c-myc-Nt-TM1α1b-G11α; test: [35S]GTPγS binding recovered in anti-c-myc immunoprecipitates, HEK293 cells; type: biochemical; settings: 10 μM phenylephrine (FIG. 13B)
Protocol: as §3

[6] = molecular target: T5, Leu133Asp histamine H1 receptor-G11α co-expressed with α1b-adrenoceptor-Gly208Ala G11α (UniProt P18841+P35367, L133D); test: [Ca2+]i imaging in EF88 cells; type: cell-based; settings: phenylephrine 10 μM, histamine 1 mM (FIG. 7A)
T5 construct: the full length c-myc-tagged α1b-adrenoceptor-G11α fusion protein; expressed in transfected cells; host or cells: EF88 mouse embryo fibroblasts (Gqα/G11α double knock-out)
T5 sequence (P35367 whole entry L133D, one chain of several, the tested form may be a part): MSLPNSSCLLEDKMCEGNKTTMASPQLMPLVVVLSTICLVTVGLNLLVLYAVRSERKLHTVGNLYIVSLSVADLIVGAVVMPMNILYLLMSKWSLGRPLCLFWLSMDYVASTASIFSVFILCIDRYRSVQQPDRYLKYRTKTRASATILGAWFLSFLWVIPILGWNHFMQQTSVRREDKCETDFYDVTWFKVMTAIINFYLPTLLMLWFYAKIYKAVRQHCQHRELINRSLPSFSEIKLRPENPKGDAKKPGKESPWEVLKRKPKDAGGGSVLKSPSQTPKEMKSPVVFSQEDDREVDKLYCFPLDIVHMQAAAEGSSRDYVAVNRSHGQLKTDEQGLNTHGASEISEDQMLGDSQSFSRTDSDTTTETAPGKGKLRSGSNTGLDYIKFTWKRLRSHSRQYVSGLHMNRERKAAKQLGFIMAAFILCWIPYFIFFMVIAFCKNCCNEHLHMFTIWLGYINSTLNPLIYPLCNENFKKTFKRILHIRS
T5 sequence (P21278 whole entry partner, one chain of several, the tested form may be a part): as the sequence (P21278 whole entry G208A partner, one chain of several, the tested form may be a part) above, with A208G counted along it
T5 sequence (P21278 whole entry G208A partner, one chain of several, the tested form may be a part): as the sequence (P21278 whole entry G208A partner, one chain of several, the tested form may be a part) above
Protocol: EF88 cells were grown in DMEM supplemented with 10% (v/v) heat inactivated foetal bovine serum and L-glutamine (1 mM) in a 95% air and 5% CO2 atmosphere at 37° C. A portion of the cells harvested during trypsinization were plated on to glass coverslips and after a 24 h growth period they were transfected using LipofectAMINE (Life Technologies Inc.) according to the manufacturers' instructions. After 3 h cells were washed twice with OPTIMEM 1 and then cultured in DMEM growth medium for a further 24 h. A total of 3 μg of pCDNA3 containing the relevant cDNA species were used to transfect each coverslip. Transfected EF88 cells were loaded with the Ca^2+-sensitive dye Fura-2 by incubation (15-20 min, 37° C.) under reduced light in DMEM growth medium containing the dye's membrane-permanent acetoxymethylester form (1.5 μM).

[7] = molecular target: T6, Leu151Aspα1b-adrenoceptor-G11α co-expressed with histamine H1 receptor-Gly208Ala G11α (UniProt P18841+P35367, L151D); type: cell-based; settings: EF88 cells; phenylephrine 10 μM, histamine 1 mM (FIG. 7B)
T6 construct: the full length c-myc-tagged α1b-adrenoceptor-G11α fusion protein; expressed in transfected cells; host or cells: EF88 mouse embryo fibroblasts (Gqα/G11α double knock-out)
T6 sequence (P21278 whole entry G208A, the tested form may be a part): as the sequence (P21278 whole entry G208A partner, one chain of several, the tested form may be a part) above
T6 sequence (P18841 whole entry L151D, the tested form may be a part): as the sequence (P18841 whole entry L151D, one chain of several, the tested form may be a part) above
T6 sequence (P21278 whole entry, stated change not applied, the tested form may be a part): as the sequence (P21278 whole entry G208A partner, one chain of several, the tested form may be a part) above, with A208G counted along it
T6 sequence (P35367 whole entry, the tested form may be a part): as the sequence (P35367 whole entry L133D, one chain of several, the tested form may be a part) above, with D133L counted along it

[8] = molecular target: Leu133Asp histamine H1 receptor-G11α fusion protein (Homo sapiens, UniProt P35367, L133D); settings: HEK293 membranes; 1 mM histamine (FIG. 5(3))
Sequence of Leu133Asp histamine H1 receptor-G11α fusion protein (P35367 whole entry L133D, the tested form may be a part): as the sequence (P35367 whole entry L133D, one chain of several, the tested form may be a part) above
Protocol: (§1) [^35S]GTPγS binding experiments were initiated by the addition of membranes containing defined amounts of the fusion constructs (see Results for details) to an assay buffer (20 mM HEPES (pH 7.4), 3 mM MgCl2, 100 mM NaCl, 1 μM guanosine 5′-diphosphate, 0.2 mM ascorbic acid, 50 nCi [^35S]GTPγS) containing the indicated concentrations of receptor ligands. Non-specific binding was determined in the same conditions but in the presence of 100 μM GTPγS. Reactions were incubated for 15 min at 30° C. and were terminated by the addition of 0.5 ml of ice cold buffer, containing 20 mM HEPES (pH 7.4), 3 mM MgCl2 and 100 mM NaCl.
(§2) Finally, the immunocomplexes were washed twice with solubilization buffer, and bound [^35S]GTPγS measured by liquid-scintillation spectrometry.

[9] = molecular target: co-expressed histamine H1 receptor-Gly208AlaG11α + Leu133Asp histamine H1 receptor-G11α (Homo sapiens, UniProt P35367, L133D); settings: HEK293 membranes; two mutants co-expressed; 1 mM histamine (FIG. 5(4))
Protocol: as §1, §2

[10] = molecular target: histamine H1 receptor-Gly208Ala G11α fusion protein (UniProt P21278+P35367, G208A); settings: HEK293 membranes; 1 mM histamine (FIG. 5(2))
Protocol: as §1, §2

[11] = molecular target: wild type histamine H1 receptor-G11α fusion protein (Homo sapiens, UniProt P35367); settings: HEK293 membranes; 1 mM histamine (FIG. 5(1))
Protocol: as §1, §2

[12] = molecular target: histamine H1 receptor-G11α fusion co-expressed with isolated Leu151Asp α1b-adrenoceptor (UniProt P21278+P35367); settings: in comparison to membranes expressing the same level of only the histamine H1 receptor-G11α fusion; 1 mM histamine (FIG. 12A)
[13] = molecular target: histamine H1 receptor-G11α co-transfected with Leu151Asp α1b-adrenoceptor (UniProt P21278+P35367); settings: EF88 cells; 1 mM histamine; versus histamine H1 receptor-G11α alone (FIG. 12B)

stimulation of [35S]GTPγS binding [8] | agonist activation of the G protein ([35S]GTPγS binding) [9] | stimulation of [35S]GTPγS binding [10] | stimulation of [35S]GTPγS binding [11] | histamine stimulation of [35S]GTPγS binding [12] | histamine stimulation of intracellular [Ca2+] [13] | SMILES | stimulation of the binding of [35S]GTPγS [1] | stimulation of [35S]GTPγS binding [2] | stimulation of [35S]GTPγS binding [3] | agonist-mediated binding of [35S]GTPγS [4] | stimulation of [35S]GTPγS binding in anti-c-myc immunoprecipitates ([5]; co-expressed with the isolated α1b-adrenoceptor) | [35S]GTPγS binding in response to agonist ([5]; construct expressed alone) | elevation of intracellular [Ca2+] [6] | elevation of intracellular [Ca2+] [7]
 |  |  |  |  |  | CNC[C@H](O)c1cccc(O)c1 [phenylephrine] | large stimulation | essentially eliminated | unable to stimulate binding | reconstituted phenylephrine-mediated binding | did not result in significant stimulation | did not bind | able to elevate intracellular [Ca^2+]; also recorded: elevation of intracellular calcium concentration | did not; also recorded: little or no change
absent | reconstituted agonist activation | absent | large stimulation | significantly reduced | reduced markedly | NCCc1c[nH]cn1 [histamine] |  |  |  |  |  |  | little or no change | caused elevation of intracellular [Ca^2+]; also recorded: elevation of intracellular calcium

— patent publication US7741064B2, “Materials and methods relating to G-protein coupled receptor oligomers” (The University Court of the University of Glasgow, priority 2003, dated 2010)
